Data published in ChEMBL document CHEMBL5725996, “Heteroaryl substituted pyridyl compounds useful as kinase modulators” (2017).

molecular target: T1, Interleukin-1 receptor-associated kinase 4 (Homo sapiens, UniProt Q9NWZ3); experiment: Inhibition Assay: The assays were performed in U-bottom 384-well plates. […] The reaction was initiated by the combination of IRAK4 with substrates and test compounds. The reaction mixture was incubated at room temperature for 60 min. and terminated by adding 45 μL of 35 mM EDTA to each sample. […] The final concentrations of reagents in the assays are ATP, 500 μM; FL-[…] peptide 1.5 μM; IRAK4, 0.6 nM; and DMSO, 1.6%.
T1 sequence (Q9NWZ3 whole entry): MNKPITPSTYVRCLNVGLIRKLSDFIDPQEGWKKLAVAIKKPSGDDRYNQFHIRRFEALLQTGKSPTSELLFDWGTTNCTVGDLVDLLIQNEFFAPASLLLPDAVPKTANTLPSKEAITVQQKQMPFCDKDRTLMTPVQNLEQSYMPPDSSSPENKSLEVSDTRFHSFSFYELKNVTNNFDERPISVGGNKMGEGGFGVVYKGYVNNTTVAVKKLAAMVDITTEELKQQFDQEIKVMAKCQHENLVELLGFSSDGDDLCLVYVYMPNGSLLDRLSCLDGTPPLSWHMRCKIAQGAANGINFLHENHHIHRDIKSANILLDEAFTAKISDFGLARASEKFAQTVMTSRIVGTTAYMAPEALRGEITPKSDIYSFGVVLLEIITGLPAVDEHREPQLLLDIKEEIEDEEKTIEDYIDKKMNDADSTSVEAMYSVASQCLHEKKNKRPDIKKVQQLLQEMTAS

IC50	SMILES
12.5 nM	CS[C@H]1CC[C@H](NC(=O)c2cnc(Nc3ncc(C#N)cc3F)cc2NC(C)C)CC1
9.4 nM	CCNC(=O)[C@H]1CC[C@H](NC(=O)c2cnc(Nc3ncc(C#N)cc3F)cc2NC(C)C)CC1
5.6 nM	CNC(=O)[C@H]1CC[C@H](NC(=O)c2cnc(Nc3ccc(C#N)cn3)cc2NC(C)C)CC1
5.5 nM	CC(C)(O)[C@H](F)CNC(=O)c1cnc(Nc2ncncc2Cl)cc1NC1CC1
4.1 nM	CC(C)Nc1cc(Nc2ncc(C#N)cc2Cl)ncc1C(=O)NC1CCC(C(C)(C)O)CC1 (stereo unspecified)
4.6 nM	CC(C)Nc1cc(Nc2ccc(C#N)cn2)ncc1C(=O)NC1CCC(O)(c2ccnn2C)CC1 (stereo unspecified)
12.6 nM	COC[C@H](F)CNC(=O)c1cnc(Nc2ncc(C#N)cc2F)cc1NC(C)C
19.9 nM	CC(C)Nc1cc(Nc2nc(OC3CCNCC3)ncc2Cl)ncc1C(=O)NC[C@@H](F)C(C)(C)O
2.1 nM	CC(C)(O)[C@H](F)CNC(=O)c1cnc(Nc2ncc(C#N)cc2Cl)cc1NC1CCOCC1
9.3 nM	CC(C)(O)CNc1cc(Nc2ncc(C#N)cc2Cl)ncc1C(=O)NC[C@@H](F)C(C)(C)O
16.8 nM	CC(=O)N[C@H]1CC[C@H](NC(=O)c2cnc(Nc3ncncc3Cl)cc2NC(C)C)CC1
